The results in this text go back to patent EP0414422A2, “2-Oxo-1-oxa-8-azaspiro [4,5] decane derivatives, processes for their preparation and pharmaceutical compositions thereof” (RICHTER GEDEON VEGYESZETI GYAR R.T., priority 1989, dated 1991).

One data set concerns rats. Briefly: Inhibition of the conditioned avoidance response (CAR inhibition) on rats. In kind it is in vivo. The note with it: Rattus norvegicus, po; male Hannover-Wistar rats, p.o., treated 3 hours before the experiment; dose causing 50% inhibition of the conditioned avoidance response; read-out: CAR ED₅₀. The source says: (§1) Male CFLP mice with a body-weight of 18 to 25 g and male Hannover-Wistar rats with a body-weight of 160 to 180 g were used for the pharmacological investigations. The test compounds were orally administered in a 2% Tween-80 suspension. The pharmacological investigating methods used are described hereinafter.
2. Inhibition of the conditioned avoidance response (CAR inhibition) on rats
The method of D. Bovet et al. (Neuropsychopharmacology, ed. R. Rothlin Vol. 2, p. 142, Elsevier Publishing Co. N.Y. 1961) was used.
Male rats weighing 160 to 180 g were conditioned in an automated 6-channel Shuttle box for 10 days. Each daily session consisted of 50 cycles and each one cycle lasted for 40 seconds. Within a single cycle an intermittent light stimulus for 15 seconds as conditioned stimulus, and an electric stimulus of 0.8 mA for 10 seconds as unconditioned stimulus, were used with an intersignal time of 15 seconds. When an animal changed its half-court during the conditioned stimulus period, the stimulus was abolished and the footshock was avoided (conditioned avoidance response; abbreviated: CAR). Animals with a performance of at least 80% on the 8th to 10th days of conditioning were considered to be useful for the study. 3 hours before the experiment the animals were treated with various doses of the test substances and the ED₅₀ value, i.e. the dose causing an 50% inhibition of the conditioned avoidance response of the animals, was determined. Groups consisting of 10 animals each were used for each dose.

The test system of another data set is aggregated mice. Briefly: Protective effect against the amphetamine group toxicity on aggregated mice. In kind it is in vivo. The note with it: Mus musculus; male CFLP mice, p.o., one hour before 21 mg/kg d-amphetamine intraperitoneally; surviving animals counted after 24 hours; read-out: Protection against amph. ED₅₀. On the procedure: as §1
1. Protective effect against the amphetamine group toxicity on aggregated mice
The method described in Arch. Int. Pharmacodyn. 163, 79 (1966) was used.
The mice were treated with various doses of the test substances. After one hour following the above treatment, the animals were intraperitoneally given 21 mg/kg of d-amphetamine and then the groups consisting of 10 animals each were tightly packed together in plexiglass boses of 15x15x10 cm in size. After 24 hours had elapsed following the amphetamine treatment the surviving animals were counted. The ED₅₀ values of the substances were calculated from the percentage of the surviving animals. The ED₅₀ value is the dose protecting 50% of the animals from death.

Data set [1] has as its system mice. Briefly: Measurement of the spontaneous body temperature. In kind it is in vivo. Particulars: 30 mg/kg orally, rectal temperature 5 hours following treatment, related to untreated control animals. As to the method:
as §1
3. Measurement of the spontaneous body temperature
Groups consisting of 10 mice each were orally treated with 30 mg/kg doses of the test substances. After treatment the rectal temperature of the male mice was determined each hour for 5 hours. The average values of temperature decrease related to the body temperature of the untreated control animals (37.1±0.8 °C) 5 hours following treatment are given in Table 1.

In data set [2] the test system is mice. In words: Inhibition of the aggressive behaviour of the mice. Format: in vivo. The note with it: Mus musculus, po; male mice, p.o., 3 hours following the treatment, electric stimulation of 1 mA; read-out: Antiaggressive effect, ED₅₀. As to the method: as §1
4. Inhibition of the aggressive behaviour of the mice
The method described in J. Pharmacol. Expt. Therap. 125, 28 (1959) was used.
Pairs of male mice weighing 20 to 25 each were treated with the test compounds and then placed in cages. 3 hours following the treatment an aggressive behaviour was induced on the animals by using an electric stimulation of 1 mA current intensity. Each group consisted of 5 pairs of mice. The ED₅₀ values were calculated from the percentage of animal pairs showing no aggressive behaviour as a result of the treatment. (ED₅₀ value is the dose inhibiting the aggressive behaviour on 50% of the animals.)

Another data set can be described thus: Acute toxicity. Particulars: male, Hannover-Wistar, rat, in vivo, po; rats, p.o., deaths observed for 14 days; read-out: LD₅₀. On the procedure: as §1
Rats were treated with various doses of the test compounds. […] The LD₅₀ value, i.e. the dose causing the death of half of the animals, was determined from the percentage of the dead animals.

Consider `CN1C(=O)OC2(CCN(CCCN3c4ccccc4Sc4ccc(Cl)cc43)CC2)C1(C)O` (centres unmarked) [F, 8-[3-(2-chloro-10H-phenothiazin-10-yl)propyl]-3,4-dimethyl-4-hydroxy-2-oxo-1-oxa-3,8-diazaspiro[4,5]decane], for which the ED50 with rats came to 4.6 mg/kg; with aggregated mice, 0.7 mg/kg. For the same compound, the “Decrease in the spontaneous temperature” value in the data set with mice [1] was -9.1 C°.
Take `C=C1N(CC)C(=O)OC12CCN(CCCN1c3ccccc3Sc3ccc(C(F)(F)F)cc31)CC2` [D, 3-ethyl-4-methylene-2-oxo-8-[3-(2-trifluoromethyl-10H-phenothiazin-10-yl)propyl]-1-oxa-3,8-diazaspiro[4,5]decane]: the ED50 in the data set with mice [2] came to 2.5 mg/kg; in the data set with rats, 6.8 mg/kg; in the data set with aggregated mice it was 4.1 mg/kg. Moreover, in “Acute toxicity”, the LD50 at 14 days worked out at 500 mg/kg. For the same compound, the “Decrease in the spontaneous temperature” value with mice [1] is recorded as -8.2 C°.
In the case of `C=C1N(CCC)C(=O)OC12CCN(CCCN1c3ccccc3Sc3ccc(Cl)cc31)CC2` [E], the values for the ED50 in the data set with mice [2], in the data set with rats and in the data set with aggregated mice were 2 mg/kg, 10.6 mg/kg and 1.8 mg/kg, respectively. The “Decrease in the spontaneous temperature” value with mice [1] was -5.6 C°.
On to `CN1C(=O)OC2(CCN(CCCN3c4ccccc4Sc4ccc(C(F)(F)F)cc43)CC2)C1(C)O` (centres unmarked) [H, 3,4-dimethyl-4-hydroxy-2-oxo-8-[3-(2-trifluoromethyl-10H-phenothiazin-10-yl)propyl]-1-oxa-3,8-diazaspiro[4,5]decane], for which the ED50 in the data set on rats came out at 3.1 mg/kg; with aggregated mice, 0.9 mg/kg. The “Decrease in the spontaneous temperature” value in the data set on mice [1] is given as -9.6 C°.
Consider `CN(C)CCCN1c2ccccc2Sc2ccc(Cl)cc21` [CPZ, 2-chloro-10-(3-dimethylaminopropyl)phenothiazine, reference compound], for which the ED50 came to 4.3 mg/kg with mice [2], 17.1 mg/kg in the data set on rats and 7.2 mg/kg in the data set with aggregated mice. Also, the LD50 at 14 days in the data set “Acute toxicity” turned out to be 225 mg/kg. In the data set with mice [1], the “Decrease in the spontaneous temperature” value is -7.9 C°.
Turning to `CCN1C(=O)OC2(CCN(CCCN3c4ccccc4Sc4ccc(Cl)cc43)CC2)C1(C)O` (centres unmarked) [G, 8[3-(2-chloro-10H-phenothiazin-10-yl)propyl]-3-ethyl-4-hydroxy-4-methyl-2-oxo-1-oxa-3,8-diazaspiro[4,5]decane], the values for the ED50 with rats and in the data set on aggregated mice were 6.9 mg/kg and 2.4 mg/kg, respectively. Moreover, the “Decrease in the spontaneous temperature” value with mice [1] is reported as -8.1 C°.
Regarding `C=C1N(C)C(=O)OC12CCN(CCCN1c3ccccc3Sc3ccc(C(F)(F)F)cc31)CC2` [C, 3-methyl-4-methylene-2-oxo-8-[3-(2-trifluoromethyl-10H-phenothiazin-10-yl)propyl]-1-oxa-3,8-diazaspiro[4,5]decane], the results for the ED50 in the data set on mice [2], with rats and in the data set on aggregated mice were 1.2 mg/kg, 1.9 mg/kg and 0.7 mg/kg, respectively. Besides, the LD50 at 14 days in the data set “Acute toxicity” turned out to be 235 mg/kg. Besides, the “Decrease in the spontaneous temperature” value with mice [1] was -9.9 C°.
Take `C=C1N(C)C(=O)OC12CCN(CCCN1c3ccccc3Sc3ccc(Cl)cc31)CC2` [Compound A, 8-[3-(2-chloro-10H-phenothiazin-10-yl)propyl]-3-methyl-4-methylene-2-oxo-1-oxa-3,8-diazaspiro[4,5]decane]: the ED50 came out at 1.7 mg/kg in the data set with mice [2], 6 mg/kg in the data set on rats and 0.6 mg/kg with aggregated mice. The LD50 at 14 days in “Acute toxicity” was determined as 353 mg/kg. Further, the “Decrease in the spontaneous temperature” value with mice [1] is -8.8 C°.
As for `C=C1N(CC)C(=O)OC12CCN(CCCN1c3ccccc3Sc3ccc(Cl)cc31)CC2` [B, 8-[3-(2-chloro-10H-phenothiazin-10-yl)propyl]-3-ethyl-4-methylene-2-oxo-1-oxa-3,8-diazaspiro[4,5]decane], the ED50 in the data set with mice [2] is 10.9 mg/kg; in the data set on rats it was 1.6 mg/kg; with aggregated mice it was 1.6 mg/kg. The LD50 at 14 days in “Acute toxicity” was 500 mg/kg. The “Decrease in the spontaneous temperature” value in the data set on mice [1] was -7.4 C°.
Take `CCCN1C(=O)OC2(CCN(CCCN3c4ccccc4Sc4ccc(C(F)(F)F)cc43)CC2)C1(C)O` (centres unmarked) [I, 4-hydroxy-4-methyl-2-oxo-3-propyl-8-[3-(2-trifluoromethyl-10H-phenothiazin-10-yl)propyl]-1-oxa-3,8-diazaspiro[4,5]decane]: the results for the ED50 in the data set on rats and in the data set with aggregated mice were 5.6 mg/kg and 4.2 mg/kg, respectively. The “Decrease in the spontaneous temperature” value in the data set on mice [1] is reported as -7.0 C°.
